This is an account of results in patent US20230365541A1, “INHIBITOR OF ENHANCER OF ZESTE HOMOLOGUE 2, AND USE THEREOF” (HAISCO PHARMACEUTICALS PTE. LTD., priority 2020, published 2023).

In one data set the target is EZH2 (Homo sapiens (Human), UniProt Q15910). The data set can be described thus: Test method for EZH2 enzyme activity. In kind it is biochemical. The note with it: H3K27(21-44) and [3H]-SAM. In outline: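 EZH2 (3 nM final) preincubated 15 min with compound in Tris-HCl pH 9.0 buffer, then H3K27(21-44) peptide and [3H]-SAM added (mixture at 200 nM and 100 nM) for 60 min at room temperature. Reaction quenched with cold SAM; flashplate scintillation read, inhibition normalized to controls and IC50 fitted.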

The nature of data set [1]: Pharmacokinetic experiment in mice (single intragastric dose, 20 mg/kg). Conditions: male, ICR, mouse, plasma, po.
Protocol: (§1) Experimental objective: a single dose of test compounds was administered to ICR mice intragastrically, and the concentrations of the test compounds in plasma of the mice were measured to evaluate pharmacokinetic characteristics of the test compounds in the mice.
(§2) Experimental animal: male ICR mice, about 20-25 g, 6-8 weeks old, 3 mice/compound, purchased from Chengdu Dossy Experimental Animals Co., Ltd.
(§3) Experimental method: on the day of the experiment, three ICR mice were randomly grouped according to their body weight. The animals were fasted with water available for 12 to 14 hours one day before the administration, and were fed 4 hours after the administration.
(§4) Before and after the administration, 0.03 mL of blood was taken from the orbit of the animals under isoflurane anesthesia, and placed in an EDTAK2 centrifuge tube. Centrifugation was carried out at 5000 rpm at 4° C. for 10 min, and the plasma was collected.
(§5) Time points for sample collection comprise 0 (before the administration), 15 min, 30 min, 1 h, 2 h, 4 h, 6 h, 8 h and 24 h.
(§6) Before analysis and detection, all samples were stored at −80° C.
The subject of another data set is SU-DHL-6 cells. The data set can be described thus: SU-DHL-6 cell proliferation test. In kind it is cell-based, human. The note with it: incubated for 14 days. The protocol:
SU-DHL-6 cells are human B-cell lymphoma cell lines purchased from ATCC and cultured under the following conditions: RPMI-1640+10% FBS+1% double antibody in a 37° C., 5% CO2 incubator. The cells were plated in a 12-well plate, with a cell concentration of 1×10^5 cells/mL. After the cells were plated, the compounds at different concentrations were added and cultured in a 37° C., 5% CO2 incubator. The cells were counted every 3-4 days (Countstar automated cell counter), centrifuged to remove the supernatant, re-diluted to 1×10^5 cells/mL and plated, and then the compounds at different concentrations were further added. After the mixture was incubated for 14 days and the cells were counted, the test was terminated, and the IC50 values were calculated by using the Origen9.2 software.

Data set [2] is described as follows: Pharmacokinetic experiment in mice (intravenous 5 mg/kg or intragastric 30 mg/kg). In kind it is in vivo. Conditions: for AUC: read-out: AUC; for C0: read-out: C0; for bioavailability: PO 30 mg/kg vs IV 5 mg/kg. The protocol: The administration was performed according to table 5.
The concentrations of the compounds in EDTA-K2 anticoagulant plasma were determined by the LC-MS/MS method. The linear range of the standard curve of the compounds is 2-2000 ng/mL. After subjected to precipitating proteins with acetonitrile, the samples were analyzed by LC-MS/MS. The standard curve was subjected to a regression calculation using the weighted least square method (W=1/X^2), and quantified by calculating the ratio of test compound peak area to internal standard peak area.
• (1) except to the blank sample, 400 μL of internal standard working solution (Verapamil internal standard concentration in precipitant acetonitrile is 10.0 ng/mL) was added to a 1.5 mL centrifuge tube containing 30 μL of standard curve samples and quality control samples; • 200 μL of internal standard working solution (Verapamil internal standard concentration in precipitant acetonitrile is 10.0 ng/mL) was added to a 1.5 mL centrifuge tube containing 15 μL of unknown samples; • and 400 μL of acetonitrile was added to the blank sample; • (2) the mixture was mixed evenly for about 1 min in a vortex mixer; • (3) centrifugation was carried out at 10000 rpm at 4C for 10 mi; • (4) 175 μL of the supernatant was transferred to a new 96-well polypropylene plate, and then the plate was sealed and placed in a 10° C. sample tray for injection.

For data set [3] the following is noted: mouse, in vivo, po, 20 mg/kg.
Protocol: as §1, §2, §3, §4, §5, §6
Where [4] appears, read: male, ICR, mouse, plasma, iv, 5 mg/kg, IV 5 mg/kg.
[5] abbreviates: male, ICR, mouse, plasma, po, 30 mg/kg, PO 30 mg/kg.
Setting [6] is: male, ICR, mouse, plasma, po, 30 mg/kg.

Chain of EZH2 (Q15910 other isoform, or with tags, fused parts or gaps isoform Q15910-2): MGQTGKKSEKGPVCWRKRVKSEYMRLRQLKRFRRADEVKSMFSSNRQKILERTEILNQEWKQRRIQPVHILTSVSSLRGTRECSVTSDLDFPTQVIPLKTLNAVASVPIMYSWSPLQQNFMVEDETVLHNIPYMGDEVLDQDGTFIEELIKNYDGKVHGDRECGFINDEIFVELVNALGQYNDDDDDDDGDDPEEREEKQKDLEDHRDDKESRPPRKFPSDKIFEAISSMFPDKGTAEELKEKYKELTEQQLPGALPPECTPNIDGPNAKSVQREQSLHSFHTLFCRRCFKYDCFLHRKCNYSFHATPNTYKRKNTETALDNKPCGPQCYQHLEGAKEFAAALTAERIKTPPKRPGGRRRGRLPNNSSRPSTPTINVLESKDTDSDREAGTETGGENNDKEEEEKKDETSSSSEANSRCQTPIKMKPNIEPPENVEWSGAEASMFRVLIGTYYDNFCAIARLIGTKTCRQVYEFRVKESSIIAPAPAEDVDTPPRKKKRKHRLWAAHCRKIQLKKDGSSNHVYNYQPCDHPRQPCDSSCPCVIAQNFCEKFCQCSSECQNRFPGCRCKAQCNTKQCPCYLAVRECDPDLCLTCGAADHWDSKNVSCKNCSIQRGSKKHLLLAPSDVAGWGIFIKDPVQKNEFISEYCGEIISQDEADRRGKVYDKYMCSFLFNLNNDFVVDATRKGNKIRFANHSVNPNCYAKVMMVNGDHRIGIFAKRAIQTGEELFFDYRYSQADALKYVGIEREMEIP
Chain of EZH2 (O75530 2-441 partner): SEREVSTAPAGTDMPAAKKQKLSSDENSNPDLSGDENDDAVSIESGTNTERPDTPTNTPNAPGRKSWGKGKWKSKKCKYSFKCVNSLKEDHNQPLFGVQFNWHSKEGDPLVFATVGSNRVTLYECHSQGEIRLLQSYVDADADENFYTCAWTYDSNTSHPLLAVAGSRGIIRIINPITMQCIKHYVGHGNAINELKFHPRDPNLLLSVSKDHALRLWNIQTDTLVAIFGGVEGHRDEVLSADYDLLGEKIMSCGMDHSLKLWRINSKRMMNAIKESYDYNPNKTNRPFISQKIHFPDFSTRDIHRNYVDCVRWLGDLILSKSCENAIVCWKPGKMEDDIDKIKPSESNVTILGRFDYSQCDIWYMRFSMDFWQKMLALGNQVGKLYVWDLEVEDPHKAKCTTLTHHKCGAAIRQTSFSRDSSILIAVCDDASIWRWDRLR
Chain of EZH2 (Q15022 2-739 partner): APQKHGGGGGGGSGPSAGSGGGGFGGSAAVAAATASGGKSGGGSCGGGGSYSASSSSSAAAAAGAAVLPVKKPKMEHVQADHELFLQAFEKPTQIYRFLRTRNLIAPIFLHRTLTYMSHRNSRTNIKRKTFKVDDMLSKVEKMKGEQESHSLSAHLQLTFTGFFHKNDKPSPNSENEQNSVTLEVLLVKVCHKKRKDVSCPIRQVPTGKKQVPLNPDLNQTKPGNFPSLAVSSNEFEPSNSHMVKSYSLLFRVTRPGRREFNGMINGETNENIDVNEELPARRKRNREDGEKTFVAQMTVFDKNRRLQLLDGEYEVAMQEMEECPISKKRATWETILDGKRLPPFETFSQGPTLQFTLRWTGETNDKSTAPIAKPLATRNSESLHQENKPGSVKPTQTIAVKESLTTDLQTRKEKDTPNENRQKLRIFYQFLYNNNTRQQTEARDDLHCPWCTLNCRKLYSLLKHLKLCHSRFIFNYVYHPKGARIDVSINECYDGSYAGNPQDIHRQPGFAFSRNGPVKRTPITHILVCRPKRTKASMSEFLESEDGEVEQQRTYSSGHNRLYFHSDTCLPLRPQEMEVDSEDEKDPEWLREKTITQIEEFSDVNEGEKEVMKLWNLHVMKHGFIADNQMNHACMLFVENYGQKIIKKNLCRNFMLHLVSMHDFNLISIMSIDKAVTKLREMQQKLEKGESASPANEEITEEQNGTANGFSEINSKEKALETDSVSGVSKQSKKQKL
Chain of EZH2 (Q09028 2-425 partner): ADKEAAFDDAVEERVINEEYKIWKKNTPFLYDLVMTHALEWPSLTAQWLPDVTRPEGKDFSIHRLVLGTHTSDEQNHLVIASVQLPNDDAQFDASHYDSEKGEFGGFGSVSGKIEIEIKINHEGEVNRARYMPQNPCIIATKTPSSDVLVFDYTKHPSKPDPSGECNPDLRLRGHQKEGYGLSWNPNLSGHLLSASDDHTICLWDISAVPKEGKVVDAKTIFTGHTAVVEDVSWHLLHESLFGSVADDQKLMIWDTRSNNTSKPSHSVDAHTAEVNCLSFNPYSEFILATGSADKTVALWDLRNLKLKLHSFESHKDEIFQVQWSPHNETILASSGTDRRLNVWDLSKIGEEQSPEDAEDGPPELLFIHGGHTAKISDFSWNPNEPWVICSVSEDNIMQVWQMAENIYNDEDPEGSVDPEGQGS
Chain of EZH2 (Q6ZN18 whole entry partner): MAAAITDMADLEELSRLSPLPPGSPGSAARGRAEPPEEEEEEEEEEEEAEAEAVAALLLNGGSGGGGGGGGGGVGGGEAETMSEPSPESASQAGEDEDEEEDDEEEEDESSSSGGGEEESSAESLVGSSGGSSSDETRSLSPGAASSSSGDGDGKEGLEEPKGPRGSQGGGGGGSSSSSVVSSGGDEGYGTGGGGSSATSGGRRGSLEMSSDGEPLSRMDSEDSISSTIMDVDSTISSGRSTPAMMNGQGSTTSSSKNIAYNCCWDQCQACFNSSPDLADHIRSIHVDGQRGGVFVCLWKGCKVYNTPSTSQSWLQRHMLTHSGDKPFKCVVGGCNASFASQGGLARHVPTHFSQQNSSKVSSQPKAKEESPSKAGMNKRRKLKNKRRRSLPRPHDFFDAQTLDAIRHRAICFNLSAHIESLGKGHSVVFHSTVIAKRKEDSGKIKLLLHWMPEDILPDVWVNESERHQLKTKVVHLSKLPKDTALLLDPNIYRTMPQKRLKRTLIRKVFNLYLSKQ

As to `CSc1cc(C)[nH]c(=O)c1CNC(=O)c1cc(Cl)c2c(c1C)OC(C)([C@H]1CC[C@@H](N[C@H]3C[C@H](F)C3)CC1)O2` (single isomer, unassigned) [Compound 34, isomer 1, 7-chloro-2-(4-((trans-3-fluorocyclobutyl)amino)cyclohexyl)-2,4-dimethyl-N-((6-methyl-4-(methylthio)-2-oxo-1,2-dihydropyridin-3-yl)methyl)benzo[d][1,3]dioxole-5-carboxamide], inhibition on EZH2 was half-maximal at 0.57 nM (IC50). In data set [1], this molecule gave an AUC of 1350 ng·h/mL, a Cmax of 598 ng/mL and a half-life of 3.37 h. The molecule further came in with a 50% inhibitory concentration (IC50) in the data set with SU-DHL-6 cells (Homo sapiens, SU-DHL-6, 336 h) of 33 nM.

For `[2H]C([2H])(NC(=O)c1cc(Cl)c2c(c1C)OC(C)([C@H]1CC[C@@H](NC3CC(F)(F)C3)CC1)O2)c1c(SC)cc(C)[nH]c1=O` (single isomer, unassigned) [Compound 44, isomer 1, 7-chloro-2-(4-((3,3-difluorocyclobutyl)amino)cyclohexyl)-2,4-dimethyl-N-((6-methyl-4-(methylthio)-2-oxo-1,2-dihydropyridin-3-yl)methyl-d2)benzo[d][1,3]dioxole-5-carboxamide], the half-maximal inhibitory concentration (IC50) on EZH2 came to 0.48 nM; in the data set with SU-DHL-6 cells (Homo sapiens, SU-DHL-6, 336 h), 24 nM. In data set [2] (ICR mice, IV 5 mg/kg, listed as Compound 44, Isomer 1), the T1/2 was 0.427 h. For the same molecule, the Cmax in data set [2] (ICR mice, PO 30 mg/kg, listed as Compound 44, Isomer 1) came out at 971 ng/mL. The AUC is 574 ng·h/mL in data set [2] (setting [4]) and 1530 ng·h/mL in data set [2] (setting [5]). Moreover, the C0 in data set [2] (setting [4]) was 2340 ng/mL. In addition, the half-life in data set [2] (setting [5]) was 1.27 h. In addition, in data set [2] (setting [6]), the bioavailability stood at 44.3%.

In the case of `CSc1cc(C)[nH]c(=O)c1CNC(=O)c1cc(Cl)c2c(c1C)OC(C)(C1CCN(CC3CC(F)(F)C3)CC1)O2` (single isomer, unassigned; isomer 1) [Compound 10, isomer 1, 7-chloro-2-(1-((3,3-difluorocyclobutyl)methyl)piperidin-4-yl)-2,4-dimethyl-N-((6-methyl-4-(methylthio)-2-oxo-1,2-dihydropyridin-3-yl)methyl)benzo[d][1,3]dioxole-5-carboxamide], in data set [3], the Conclusion on pharmacokinetics result was “Conclusion: the compounds of the present disclosure, especially isomer 1 of compound 10 and isomer 1 of compound 34, have good pharmacokinetics with long half-life and short time to reach the highest concentration”; the “Curve area AUC” value is given as 1097 h · ng · mL − 1; the “Half-life T1/2” value stood at 1.72 h; the “Plasma drug concentration Cmax” value was 1238 ng/mL. Further, in data set [3], the “Time to reach peak Tmax” value worked out at 0.25.

With `CSc1cc(C)[nH]c(=O)c1CNC(=O)c1cc(Cl)c2c(c1C)OC(C)([C@H]1CC[C@H](C(=O)N3CC(F)(F)C3)CC1)O2` (single isomer, unassigned; isomer 1) [Compound 47, isomer 1, 7-chloro-2-(4-(3,3-difluoroazetidine-1-carbonyl)cyclohexyl)-2,4-dimethyl-N-(di-deuterated(6-methyl-4-(methylthio)-2-oxo-1,2-dihydropyridin-3-yl)di-deuterated-methyl)benzo[d][1,3]dioxole-5-carboxamide], the IC50 against EZH2 was found to be 0.34 nM; in the data set with SU-DHL-6 cells, 26.3 nM.

With `CNS(=O)(=O)N1CCC(C2(C)Oc3c(Cl)cc(C(=O)NCc4c(SC)cc(C)[nH]c4=O)c(C)c3O2)CC1` (stereo not shown) [Compound 26, 7-chloro-2,4-dimethyl-N-((6-methyl-4-(methylthio)-2-oxo-1,2-dihydropyridin-3-yl)methyl)-2-(1-(N-methylsulfamoyl)piperidin-4-yl)benzo[d][1,3]dioxole-5-carboxamide], the IC50 at EZH2 came out at 0.52 nM; with SU-DHL-6 cells (Homo sapiens, SU-DHL-6, 336 h), 63.2 nM.

`[2H]C([2H])(NC(=O)c1cc(Cl)c2c(c1C)OC(C)(C1CCN(CC3CC3)CC1)O2)c1c(SC)cc(C)[nH]c1=O` (stereo not shown) [Compound 27, 7-chloro-2-(1-(cyclopropylmethyl)piperidin-4-yl)-2,4-dimethyl-N-((6-methyl-4-(methylthio)-2-oxo-1,2-dihydropyridin-3-yl)methyl-d2)benzo[d][1,3]dioxole-5-carboxamide] returned a 50% inhibitory concentration (IC50) against EZH2 of 0.52 nM. In the data set with SU-DHL-6 cells (Homo sapiens, SU-DHL-6, 336 h), this molecule registered an IC50 of 93.7 nM. In data set [2] (setting [4]), the half-life is 1.42 h, the AUC turned out to be 839 ng·h/mL and the C0 was 1970 ng/mL. In data set [2] (setting [5]), the half-life is 0.934 h and the AUC is 2650 ng·h/mL. The molecule further gave a bioavailability in data set [2] (setting [6]) of 52.7%. The Cmax in data set [2] (male, ICR, mouse, plasma, po, 30 mg/kg, PO 30 mg/kg, read-out: Cmax) was found to be 865 ng/mL. The Tmax in data set [2] (male, ICR, mouse, plasma, po, 30 mg/kg, PO 30 mg/kg, read-out: Tmax) was 2 h.

Regarding `COC(=O)N1CCC(C2(C)Oc3c(Cl)cc(C(=O)NCc4c(SC)cc(C)[nH]c4=O)c(C)c3O2)CC1` (stereo not shown) [Compound 29, methyl-4-(7-chloro-2,4-dimethyl-5-(((6-methyl-4-(methylthio)-2-oxo-1,2-dihydropyridin-3-yl)methyl)carbamoyl)benzo[d][1,3]dioxol-2-yl)piperidine-1-carboxylate], the IC50 was 0.44 nM against EZH2 and 77.9 nM with SU-DHL-6 cells (Homo sapiens, SU-DHL-6, 336 h).

For the molecule `CSc1cc(C)[nH]c(=O)c1CNC(=O)c1cc(Cl)c2c(c1C)OC(C)(C1CCN(CC3(C#N)CC3)CC1)O2` (stereo not shown) [Compound 30, 7-chloro-2-(1-((1-cyanocyclopropyl)methyl)piperidin-4-yl)-2,4-dimethyl-N-((6-methyl-4-(methylthio)-2-oxo-1,2-dihydropyridin-3-yl)methyl)benzo[d][1,3]dioxole-5-carboxamide], the IC50 at EZH2 turned out to be 0.66 nM; in the data set on SU-DHL-6 cells (Homo sapiens, SU-DHL-6, 336 h), 22.6 nM.

Turning to `CSc1cc(C)[nH]c(=O)c1CNC(=O)c1cc(Cl)c2c(c1C)OC(C)(C1CCN(CC3CC3(F)F)CC1)O2` (stereo not shown) [Compound 31, 7-chloro-2-(1-((2,2-difluorocyclopropyl)methyl)piperidin-4-yl)-2,4-dimethyl-N-((6-methyl-4-(methylthio)-2-oxo-1,2-dihydropyridin-3-yl)methyl)benzo[d][1,3]dioxole-5-carboxamide], the IC50 against EZH2 was 0.52 nM; in the data set with SU-DHL-6 cells (Homo sapiens, SU-DHL-6, 336 h) it was 68 nM.

Consider `CSc1cc(C)[nH]c(=O)c1CNC(=O)c1cc(Cl)c2c(c1C)OC(C)(C1CCN(CC3CCC3)CC1)O2` (stereo not shown) [Compound 37, 7-chloro-2-(1-(cyclobutylmethyl)piperidin-4-yl)-2,4-dimethyl-N-((6-methyl-4-(methylthio)-2-oxo-1,2-dihydropyridin-3-yl)methyl)benzo[d][1,3]dioxole-5-carboxamide], for which the IC50 at EZH2 is 0.44 nM; in the data set with SU-DHL-6 cells (Homo sapiens, SU-DHL-6, 336 h), 32.1 nM.

Consider `CSc1cc(C)[nH]c(=O)c1CNC(=O)c1cc(Cl)c2c(c1C)OC(C)(C1CCN(CC3COC3)CC1)O2` (stereo not shown) [Compound 38, 7-chloro-2,4-dimethyl-N-((6-methyl-4-(methylthio)-2-oxo-1,2-dihydropyridin-3-yl)methyl)-2-(1-(oxetan-3-ylmethyl)piperidin-4-yl)benzo[d][1,3]dioxole-5-carboxamide], for which the IC50 at EZH2 was found to be 0.7 nM; in the data set with SU-DHL-6 cells (Homo sapiens, SU-DHL-6, 336 h) it was 14.1 nM.
